Data published in US8067424B2, “Selective inhibitors for cyclin-dependent kinases” (Emory University, priority 2007, dated 2011).
Read-outs that look alike come from different tables or passages of the source.

Legend:
KM12 = test: cells; conditions: Homo sapiens
A498 = test: cells; conditions: Homo sapiens
[1] = NCI-H460, log10 concentration −4.0
[2] = NCI-H460, log10 concentration −5.0
[3] = NCI-H460, log10 concentration −6.0
[4] = NCI-H460, log10 concentration −7.0
[5] = NCI-H460, log10 concentration −8.0

`CC(C)c1cnn2c(NCc3ccccc3)cc(N[C@@H](CO)[C@H](O)CO)nc12` [ICEC0318, (3S)-3-(7-(Benzylamino)-3-isopropylpyrazolo[1,5-a]pyrimidin-5-ylamino)butane-1,2,4-triol] was tested, and the TGI (NCI-H460; NCI-H460 (Non-Small Cell Lung Cancer)) was 1.71E−5, the “Mean Optical Densities” value (NCI-H460; [1]) was 0.094 and the “Percent Growth” value (NCI-H460; [1]) was −15%. The “Mean Optical Densities” value (NCI-H460; [2]) was 0.158, the “Percent Growth” value (NCI-H460; [2]) was 5% and the “Mean Optical Densities” value (NCI-H460; [3]) was 0.181. For the same molecule, the “Percent Growth” value (NCI-H460; [3]) was 7%, the “Mean Optical Densities” value (NCI-H460; [4]) was 0.919 and the “Percent Growth” value (NCI-H460; [4]) was 80%. For the same molecule, the “Mean Optical Densities” value (NCI-H460; [5]) was 1.138, the “Percent Growth” value (NCI-H460; [5]) was 102% and the GI50 (KM12; KM12) was 275 nM. It also gave a CC50 (KM12; KM12, read-out: LC50) greater than 100000 nM, a GI50 (A498; A498) of 235 nM and a CC50 (A498; A498, read-out: LC50) of 993 nM.
